Experimental data as given in patent US20230052740A1, “MODULATORS OF CIRCADIAN RHYTHMS AND USES THEREOF” (The Regents of the University of California, priority 2019, published 2023).
Like-named read-outs stand apart in the source and are kept apart here.

What was measured:
MT2 = biological target: T1, MT2 (Homo sapiens, UniProt P49286); assay: cAMP assay (GloSensor), isoproterenol-stimulated cAMP in HEK cells; format: cell-based; set-up: expressed in transfected cells; host or cells: HEK-T (HEK-293 T) cells, co-transfected with GloSensor DNA; conditions: for hMT2 pEC50: FIG. 3D-3F, transiently expressed receptor, isoproterenol-stimulated cAMP production; for hMT2 Schild slope / hMT2 pKB: Schild analysis, competitive antagonism of melatonin
T1 sequence (P49286 1-362): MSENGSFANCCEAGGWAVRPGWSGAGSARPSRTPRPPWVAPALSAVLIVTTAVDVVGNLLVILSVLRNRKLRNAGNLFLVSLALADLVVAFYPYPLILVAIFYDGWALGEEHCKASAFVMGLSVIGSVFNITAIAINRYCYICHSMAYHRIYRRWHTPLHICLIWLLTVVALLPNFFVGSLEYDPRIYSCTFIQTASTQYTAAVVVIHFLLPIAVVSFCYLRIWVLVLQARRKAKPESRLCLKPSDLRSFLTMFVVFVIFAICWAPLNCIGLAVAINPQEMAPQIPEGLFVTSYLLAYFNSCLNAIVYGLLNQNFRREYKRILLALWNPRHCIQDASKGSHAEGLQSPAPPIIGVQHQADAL
Protocol: MT1 and MT2 receptors were tested using Promega's spilt luciferase based GboSensor cAMP biosensor technology. HEK-T cells were plated in 15 cm cell culture dish (at a density of 18 million cells) containing DMEM composed of 10% dialyzed FBS, 2 mM L-glutamine, 100 units/ml penicillin G, 100 μg/ml streptomycin for 4-6 hour. Then, cells were co-transfected with 8 μg of construct which encodes either MT1 or MT2 (de-Tangonized constructs) and […] of Glosensor DNA. […] The next day, cell medium were discarded and loaded with 20 μl of assay buffer (1×HBSS, 20 mM HEPES, pH 7.4, 0.1% BSA). To measure agonist activity of MT1 or MT2 receptor, 10 μl of test compound solution at 3× final concentration was added for 15 minutes followed by addition of 10 μl of luciferin/isoproterenol mixture (at a final concentration of 4 mM and 200 nM respectively) for another 15 mins for luminescence quantification. Then, plates were counted using SpectraMax luminescence reader (Molecular Device). Data were analyzed using GraphPad Prism 6.0.

[1] = Mouse pharmacokinetic (PK) studies; format: in vivo; conditions: for Brain/Plasma Ratio: 30′; for T1/2: plasma
C3H/HeN mice = assay: Phase shift of circadian running wheel activity onset in constant dark; format: in vivo, mouse; conditions: for advance of the onset of activity: 0.9 μg/mouse (~30 μg/Kg) s.c., CT10 (dusk), 3 days; for advance of the onset of running wheel activity: 30 μg/mouse (1 mg/Kg) s.c., CT10, WT; for EC50 of in vivo activity (circadian phase shift): mouse
From the text: Male and female C3H/HeN (C3H) wild-type (WT), MT1 knockout (MT1KO), and MT2 knockout (MT2KO) mice (average 6.28 months) used in this study were raised in our breeding colony at University at Buffalo. […] Genotype was confirmed using tail samples at the end of each experiment and was verified periodically during the tenure of the colony. The strains of mice in our breeding colony were re-derived periodically by backcrossing with WT mice to reduce genetic drift.
Mice were group housed (3-5 per cage) with corncob bedding in polycarbonate translucent cages (30×19 cm) and maintained in a 14/10 light-dark (LD) cycle (Zeitgeber time 0 or ZT0 corresponds to Lights ON and ZT 14 to Lights OFF) in temperature and humidity controlled rooms with ad libitum access to food and water in the Laboratory Animal Facility at the University at Buffalo. Light levels were 200-300 lux at the level of the cage. Treatments and animal care performed in the dark were under a dim red safelight (15 watts, Kodak 1A filter) with illuminance of less than 3-5 lux (Benloucif, S. & Dubocovich, M. L. J Biol Rhythms 11, 113-125, (1996). All experimental procedures using mice were conducted in accordance with guidelines set forth by the National Institutes of Health and approved by the University at Buffalo Institutional Animal Care and Use Committee.
Circadian rhythm phase was determined for each mouse using the onset of running wheel activity defined as CT12 (Circadian Time 12). Running wheel activity was measured continuously via magnetic microswitches detecting wheel revolutions with a computer equipped with Clocklab data collection Software™ (Actimetrics: Wilmette, Ill.). All actigraphy data was visualized and analyzed using ClockLab™ and MATLAB™ software. All mice were individually housed in cages (33×15 cm) equipped with running wheels in light-tight ventilated cabinets with controlled temperature and LD cycles (Phenome Technologies: Skokie, Ill.). Male and female mice were housed in separate cabinets for all experiments.
Following a period of 14 days in a LD cycle mice were placed in constant dark (DD) beginning at ZT12 (dark onset). Mice were keptin DD (2-3 weeks) untilastable free-running phase of running wheel activity rhythm onset was established. Circadian times of treatment were predicated from best fit lines of running wheel activity onsets for of running either pre (7-14 days) and post (7-14 days) treatment. Treatment times were at CT10 (CT9-11) and CT2 (CT1-3) within a 3 hour window. […] Vehicle or drug treatments were repeated for 3 consecutive days at the selected circadian time following the three-pulse treatment protocol described (Benloucif, supra). Phase shifts were quantified using the best-fit lines for onsets of activity during pre and post treatment periods. Differences are characterized as phase delays (pre-treatment ahead of post treatment best fit line onset) or phase advances (post treatment ahead of pre treatment best fit line onset) of running wheel activity onset rhythms.
All statistical analyses as described in further detail for each experiment were conducted using GraphPad Prism 8™ (La Jolla, Calif.). All data sets were visualized for normality using QQ plots of predicted vs. actual residuals. Actigraphy data was generated for visualization blind to treatment prior to the quantification and statistical analysis stages. […] Data in FIGS. 4F & 4G were compared via a two-way ANOVA (3×2: genotype x treatment) with Tukey's post hoc analyses (P<0.05). Comparisons for FIG. 4L, FIGS. 11H-11J were made by mixed effect two-way repeated measures ANOVA (treatment×time) with Sidak's post hoc test (P<0.05). Number of days to re-entrainment was compared via one-way ANOVA or two-way ANOVA for FIG. 4M & FIG. 4N with a Dunnet's & Tukey's post hoc test (P<0.05) respectively. P values and values for statistical analyses are included in figure legends. […]

| Structure (SMILES) | hMT2 pEC50 (MT2) | hMT2 Schild slope (MT2) | hMT2 pKB (MT2) | AUC [1] [ng·h/mL] | CL [1] [mL/min/kg] | Cmax [1] [ng/mL] | Vss [1] [L/kg] | Brain/Plasma Ratio [1] | T1/2 [1] [min] | advance of the onset of activity (C3H/HeN mice; WT) | advance of the onset of running wheel activity (C3H/HeN mice; in words) | EC50 of in vivo activity (circadian phase shift) (C3H/HeN mice) [µg/kg] | further results |
| --- | --- | --- | --- | --- | --- | --- | --- | --- | --- | --- | --- | --- | --- |
| CC(C)c1ccc(CNc2cccc(-c3ncn[nH]3)c2)cc1 [ZINC157673384] | 6.18±0.04 | 1.0±0.1 | 6.7±0.1 | 563.8 | 58.48 | 1299.6 | 1.38 | 1.43 (30′) | 19.2 | approximately 1 hour | advanced the onset of running wheel activity with an amplitude equivalent to, or even larger than that of melatonin | 30 | hMT2 Emax (MT2; FIG. 3D-3E, normalized to isoproterenol-stimulated basal activity): −153±14%; MT2 % Emax (MT2; Table 2, cell marked Inverse (inverse agonist)): 153 ± 14%; pEC50 MT2 (IA) (MT2; Table 4, IA (inverse agonist)): 6.5 |
| COc1ccc(Br)c(CNc2cccnc2)c1 [ZINC128734226] | 8.15±0.09 | – | – | 282.1 | 117.9 | 1922.8 | 1.11 | 1.58 (30′) | 17.4 | – | – | – | Emax (MT2; HEK293, FIG. 3F, normalized to maximal melatonin effect, read-out: hMT2 Emax): 89 ± 3%; Emax (MT2; HEK293, Table 2, agonist, normalized to melatonin response, read-out: MT2 % Emax (converted)): 89%; Emax (MT2; HEK293, Table 4, agonist, read-out: Emax % MT2): 80%; pIC50 MT2 (MT2; Table 4, agonist): 8.2; EC50 (MT2; agonist, isoproterenol-stimulated cAMP inhibition, read-out: EC50 at MT2): 6.3 nM; effect on circadian phase (C3H/HeN mice; 0.9 or 30 μg/Kg doses, CT10, in words): did not significantly affect circadian phase |
| Clc1ccc(CNc2cccc(-c3nnc[nH]3)c2)c(Br)c1 [ZINC555417447] | 5.66±0.10 | 1.3±0.4 | 6.2±0.1 | 494.5 | 67.11 | 1948.6 | 1.11 | 3.03 (30′) | 16.2 | approximately 1 hour | advanced the onset of running wheel activity with an amplitude equivalent to, or even larger than that of melatonin | 30 | Emax (MT2; HEK293, FIG. 3D-3E, normalized to isoproterenol-stimulated basal activity, read-out: hMT2 Emax): -84 ± 9%; Emax (MT2; HEK293, Table 2, cell marked Inverse (inverse agonist), read-out: MT2 % Emax (converted)): 84%; EC50 (MT2; Table 4, IA (inverse agonist), read-out: pEC50 MT2 (IA) (converted)): 1000 nM; phase shift of RW activity onset at CT2 (C3H/HeN mice; 30 μg/mouse s.c., CT2 (dawn), WT, MT1KO, MT2KO, in words): did not phase shift RW activity onset; phase advance activity in MT1KO mice (C3H/HeN mice; 30 μg/mouse s.c., CT10, MT1KO, in words): ablation of the activity; phase advance activity in MT2KO mice (C3H/HeN mice; 30 μg/mouse s.c., CT10, MT2KO, in words): maintenance of its activity |
